The target in this experiment is human DGAT2 (hDGAT2) (Homo sapiens (Human), UniProt Q96PD7). As to the kind of experiment: DGAT2 Enzymatic Activity Assay. The class given is biochemical. The note with it: membrane prep of Sf-9 insect cells expressing hDGAT2; 13C18-triolein product by LC/MS/MS. On the procedure:
Sf-9 insect cells were maintained in Grace's insect cell culture medium with 10% heated-inactivated fetal bovine serum, 1% Pluronic F-68 and 0.14 μg/ml Kanamycine sulfate at 27° C. in a shaker incubator. After infection with untagged baculovirus expressing human DGAT2 (hDGAT2) at multiplicity of infection (MOI) 3 for 48 hours, cells were harvested. Cell pellets were suspended in buffer containing 10 mM Tris-HCl pH 7.5, 1 mM EDTA, 250 mM sucrose and Complete Protease Inhibitor Cocktail (Sigma Aldrich), and sonicated on ice. Cell debris were removed by centrifugation at 2000×g for 15 minutes. Membrane fractions were isolated by ultracentrifugation (100,000×g), resuspended in the same buffer, and frozen (−80° C.) for later use. The protein concentration was determined with the Pierce™ BCA Protein Assay Kit (Thermo Fisher Scientific). Expression of protein levels was analyzed by immunoblotting with rabbit anti-DGAT2 antibody (Abcam, ab102831) and donkey anti-rabbit IgG H&L Alexa Fluor® 647 (Abcam, ab150075) followed by detection using Typhoon FLA9000 (GE Healthcare).
LC/MS/MS analyses were performed using Thermal Fisher's LX4-TSQ Vantage system. This system consists of an Agilent binary high-performance liquid chromatography (HPLC) pumps and a TSQ Vantage triple quadrupole MS/MS instrument. For each sample, 2 μL samples from the top organic layer of in-plate liquid-liquid extraction were injected onto a Thermo Betabasic C4 column (2.1 mm×20 mm, 5 μm particle size). The samples were then eluted using the following conditions; mobile phase: Isopropanol: acetonitrile/10 mM ammonium formate=50/35/15 (v/v/v), flow rate: 0.8 mL/min, temperature: 25° C. Data was acquired in positive mode using a heated electrospray ionization (HESI) interface. The operational parameters for the TSQ Vantage MS/MS instrument were a spray voltage of 3000 V, capillary temperature of 280° C., vaporizer temperature 400° C., sheath gas 45 arbitrary unit, Aux gas 10 arbitrary units, S-lens 165 and collision gas 1.0 mTorr. […] (SRM) chromatograms of ^13C18-triolein (Q1: 920.8>Q3:621.3) and internal standard ^13C21-triolein (Q1: 923.8>Q3:617.3) were collected for 33 sec. The peak area was integrated by Xcalibur Quan software. The ratio between the ^13C18 triolein generated in the reaction and spiked in internal standard ^13C21-triolein was used to generate percentage inhibition and IC50 values. Compound percentage inhibition was calculated by the following formula: Inhibition %=1−[(compound response−low control)/(high control−low control)]×100%. Potent compounds were titrated and IC50 were calculated by 4 parameter sigmoidal curve fitting formula.
DGAT2 activity was determined by measuring the amount of enzymatic product ^13C18-triolein (^13C-1,2,3-Tri(cis-9-octadecenoyl)glycerol) using the membrane prep mentioned above. The assay was carried out in ABgene 384-well assay plates in a final volume of 25 μL at rt. The assay mixture contained the following: assay buffer (100 mM Tris·Cl, pH 7.0, 20 mM MgCl2, 5% ethanol), 25 μM of diolein, 5 μM of ^13C oleoyl-CoA and 8 ng/μL of DGAT2 membrane.

Sequence of human DGAT2 (hDGAT2) (Q96PD7 whole entry): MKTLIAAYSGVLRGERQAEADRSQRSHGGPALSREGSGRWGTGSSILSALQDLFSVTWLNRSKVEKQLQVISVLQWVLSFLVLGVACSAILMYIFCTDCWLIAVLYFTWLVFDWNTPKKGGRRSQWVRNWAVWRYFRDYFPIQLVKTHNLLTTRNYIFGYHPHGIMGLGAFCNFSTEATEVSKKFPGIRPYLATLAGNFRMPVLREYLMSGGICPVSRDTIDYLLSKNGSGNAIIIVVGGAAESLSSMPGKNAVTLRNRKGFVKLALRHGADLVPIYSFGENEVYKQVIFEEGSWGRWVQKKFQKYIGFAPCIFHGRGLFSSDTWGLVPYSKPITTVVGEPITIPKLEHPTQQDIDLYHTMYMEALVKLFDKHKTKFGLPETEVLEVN

On to `CC(C)[C@H](NC(=O)c1cnc2c(-c3cncc(OC(F)F)c3)nn(C(C)C)c2c1)[C@H](C)O` [Example 54, 3-(5-(difluoromethoxy)pyridin-3-yl)-N-((2S,3S)-2-hydroxy-4-methylpentan-3-yl)-1-isopropyl-1H-pyrazolo[4,3-b]pyridine-6-carboxamide], for which the IC50 (in general, the concentration that gives 50% inhibition) is 0.013 µM.

Compound `CC(C)n1nc(-c2cncc(OC3CC3)c2)c2ncc(C(=O)NC3(C)CS(=O)(=O)C3)cc21` [Example 106, 3-(5-cyclopropoxypyridin-3-yl)-1-isopropyl-N-(3-methyl-1,1-dioxidothietan-3-yl)-1H-pyrazolo[4,3-b]pyridine-6-carboxamide] displayed a concentration for half-maximal inhibition (IC50) of 0.046 µM.

As for `CC(C)n1nc(-c2cncc(OC(F)(F)F)c2)c2ncc(C(=O)NC3(C)CS(=O)(=O)C3)cc21` [Example 114, 1-isopropyl-N-(3-methyl-1,1-dioxidothietan-3-yl)-3-(5-(trifluoromethoxy)pyridin-3-yl)-1H-pyrazolo[4,3-b]pyridine-6-carboxamide], the 50% inhibitory concentration (IC50) came to 0.02 µM.

Regarding `Cc1nc2c(-c3nn(C(C)C)c4cc(C(=O)NC5(C)CS(=O)(=O)C5)cnc34)cccc2o1` [Example 123, 1-isopropyl-N-(3-methyl-1,1-dioxidothietan-3-yl)-3-(2-methylbenzo[d]oxazol-4-yl)-1H-pyrazolo[4,3-b]pyridine-6-carboxamide], the IC50 was 0.487 µM.

`CC1(NC(=O)c2cnc3c(-c4cccc(OC(F)F)c4)nn(-c4ncc(F)cn4)c3c2)CS(=O)(=O)C1` [Example 4, 3-(3-(difluoromethoxy)phenyl)-1-(5-fluoropyrimidin-2-yl)-N-(3-methyl-1,1-dioxidothietan-3-yl)-1H-pyrazolo[4,3-b]pyridine-6-carboxamide] showed an IC50 of 0.017 µM.

In turn, `CC(C)n1nc(-c2cccc(OC(F)F)c2)c2ncc(C(=O)NC3(C(C)O)CCOC3)cc21` (single isomer, unassigned) [Example 50d, 3-(3-(difluoromethoxy)phenyl)-N-(3-(1-hydroxyethyl)tetrahydrofuran-3-yl)-1-isopropyl-1H-pyrazolo[4,3-b]pyridine-6-carboxamide] showed an IC50 of 0.15 µM.

Compound `CC(C)n1nc(-c2cccc(OC(F)F)n2)c2ncc(C(=O)NC3(C)CS(=O)(=O)C3)cc21` [Example 96, 3-[6-(difluoromethoxy)-2-pyridyl]-1-isopropyl-N-(3-methyl-1,1-dioxo-thietan-3-yl)pyrazolo[4,3-b]pyridine-6-carboxamide] returned an IC50 of 5.54 µM.

`CC(C)n1nc(-c2cccc(OC(F)(F)F)c2)c2ncc(C(=O)NC3(C)CS(=O)(=O)C3)cc21` [Example 119, 1-isopropyl-N-(3-methyl-1,1-dioxidothietan-3-yl)-3-(3-(trifluoromethoxy)phenyl)-1H-pyrazolo[4,3-b]pyridine-6-carboxamide] gave an IC50 of 0.097 µM.

Consider `C[C@]1(NC(=O)c2ccc3c(-c4ccccc4Cl)cn(-c4ccc(F)cc4)c3n2)CCS(=O)(=O)C1` [Example 10, (S)-3-(2-chlorophenyl)-1-(4-fluorophenyl)-N-(3-methyl-1,1-dioxidotetrahydrothiophen-3-yl)-1H-pyrrolo[2,3-b]pyridine-6-carboxamide], for which half-maximal inhibition (IC50) required 3.7 µM.

Take `CC(C)n1nc(-c2cccc(OC(F)F)c2)c2c(F)cc(C(=O)NC3(C)CS(=O)(=O)C3)cc21` [Example 33, 3-(3-(difluoromethoxy)phenyl)-4-fluoro-1-isopropyl-N-(3-methyl-1,1-dioxidothietan-3-yl)-1H-indazole-6-carboxamide]: the IC50 was found to be 0.001 µM.

Compound `C[C@]1(NC(=O)c2cnc3c(-c4ccccc4Cl)cn(-c4ccc(F)cc4)c3c2)CCS(=O)(=O)C1` [Example 11, (S)-3-(2-chlorophenyl)-1-(4-fluorophenyl)-N-(3-methyl-1,1-dioxidotetrahydrothiophen-3-yl)-1H-pyrrolo[3,2-b]pyridine-6-carboxamide] returned a half-inhibitory concentration (IC50) of 0.186 µM.

Take `CC(C)n1nc(-c2cc(OC(F)F)ncc2F)c2nnc(C(=O)NC3(C)CCS(=O)(=O)CC3)cc21` [Example 85, 3-(2-(difluoromethoxy)-5-fluoropyridin-4-yl)-1-isopropyl-N-(4-methyl-1,1-dioxidotetrahydro-2H-thiopyran-4-yl)-1H-pyrazolo[4,3-c]pyridazine-6-carboxamide]: the IC50 was determined as 0.143 µM.

In turn, `CC(C)(C)Cn1nc(-c2cccc(OC(F)F)c2)c2ncc(C(=O)NC3(C)CS(=O)(=O)C3)cc21` [Example 29, 3-(3-(difluoromethoxy)phenyl)-N-(3-methyl-1,1-dioxidothietan-3-yl)-1-neopentyl-1H-pyrazolo[4,3-b]pyridine-6-carboxamide] displayed an IC50 of 0.388 µM.

`CC1(NC(=O)c2cnc3c(-c4cccc(OC(F)F)c4)nn(C4CC4)c3c2)CS(=O)(=O)C1` [Example 30, 1-cyclopropyl-3-(3-(difluoromethoxy)phenyl)-N-(3-methyl-1,1-dioxidothietan-3-yl)-1H-pyrazolo[4,3-b]pyridine-6-carboxamide] registered an IC50 of 0.099 µM.

With `CC(C)n1nc(-c2cccc(OC(F)F)c2)c2ncc(C(=O)N[C@]3(C#N)CCOC3)cc21` [Example 38, N-[(3S)-3-cyanotetrahydrofuran-3-yl]-3-[3-(difluoromethoxy)phenyl]-1-isopropyl-pyrazolo[4,3-b]pyridine-6-carboxamide], it took 0.011 µM to reach half-maximal inhibition (IC50).

`CC(C)n1nc(-c2cccc(OC(F)F)c2)c2ncc(C(=O)NC3(CO)CC(F)(F)C3)cc21` [Example 51, N-(3,3-difluoro-1-(hydroxymethyl)cyclobutyl)-3-(3-(difluoromethoxy)phenyl)-1-isopropyl-1H-pyrazolo[4,3-b]pyridine-6-carboxamide]: half-maximal inhibition (IC50) was put at 0.017 µM.

Turning to `CC(C)n1nc(-c2cccc(OC(F)F)c2)c2ncc(C(=O)NC3(C(C)(C)O)CCOCC3)cc21` [Example 72, 3-(3-(difluoromethoxy)phenyl)-N-(4-(2-hydroxypropan-2-yl)tetrahydro-2H-pyran-4-yl)-1-isopropyl-1H-pyrazolo[4,3-b]pyridine-6-carboxamide], the IC50 was 0.638 µM.

`CC1(NC(=O)c2cnc3c(-c4cccc(OC(F)F)c4)nn(C4CC(F)(F)C4)c3c2)CS(=O)(=O)C1` [Example 86, 1-(3,3-difluorocyclobutyl)-3-(3-(difluoromethoxy)phenyl)-N-(3-methyl-1,1-dioxidothietan-3-yl)-1H-pyrazolo[4,3-b]pyridine-6-carboxamide] had an IC50 of 0.024 µM.

Compound `CC1(NC(=O)c2cnc3c(-c4cccc(OC(F)F)c4)nn(C4COC4)c3c2)CS(=O)(=O)C1` [Example 61, 3-[3-(difluoromethoxy)phenyl]-N-(3-methyl-1,1-dioxo-thietan-3-yl)-1-(oxetan-3-yl)pyrazolo[4,3-b]pyridine-6-carboxamide] showed an IC50 of 0.065 µM.

Compound `CC(C)n1nc(-c2cc(OC(F)F)ccn2)c2ncc(C(=O)NC3(C)CS(=O)(=O)C3)cc21` [Example 98, 3-[4-(difluoromethoxy)-2-pyridyl]-1-isopropyl-N-(3-methyl-1,1-dioxo-thietan-3-yl)pyrazolo[4,3-b]pyridine-6-carboxamide] returned a concentration for half-maximal inhibition (IC50) of 0.69 µM.

On to `C[C@]1(NC(=O)c2cc3c(cn2)c(-c2cccc(OC(F)F)c2)cn3C2CCOCC2)CCS(=O)(=O)C1` [Example 82, (S)-3-(3-(difluoromethoxy)phenyl)-N-(3-methyl-1,1-dioxidotetrahydrothiophen-3-yl)-1-(tetrahydro-2H-pyran-4-yl)-1H-pyrrolo[3,2-c]pyridine-6-carboxamide], for which the IC50 stood at 0.612 µM.

As for `CC(C)n1nc(-c2cccc(OC(F)F)c2)c2ncc(C(=O)N[C@H]3CCC[C@H]3O)cc21` [Example 44, 3-(3-(difluoromethoxy)phenyl)-N-((1S,2R)-2-hydroxycydopentyl)-1-isopropyl-1H-pyrazolo[4,3-b]pyridine-6-carboxamide], the IC50 was determined as 0.064 µM.

`CC(C)(O)Cn1nc(-c2cccc(C3CC3)c2)c2ncc(C(=O)NC3(C)CS(=O)(=O)C3)cc21` [Example 112, 3-(3-cyclopropylphenyl)-1-(2-hydroxy-2-methylpropyl)-N-(3-methyl-1,1-dioxidothietan-3-yl)-1H-pyrazolo[4,3-b]pyridine-6-carboxamide] showed a concentration for half-maximal inhibition (IC50) of 0.006 µM.
